In general, IC50 refers to the concentration that gives 50% inhibition.

Experiment [1] has as its target T1, αIIbβ3 integrin (Homo sapiens, UniProt P05106+P08514).
T1 construct: Human fibrinogen receptor (αIIbβ3) was purified from human platelets; from tissue; host or cells: human platelets
The experiment is described as follows: αIIbβ3-fibrinogen binding assay (solid phase). To be noted: inhibition of biotinylated fibrinogen (10 nM) binding to coated integrin; read-out: αIIbβ3 (IC50 μmol). The protocol: (§1) A solid phase assay for the study of αIIbβ3-fibrinogen binding was set up according to the method described for αvβ3. αIIbβ3 integrin was diluted into coating buffer (CB) containing 150 mM NaCl, 1 mM Cacl2, 1 mM MgCl2, 1 mM MnCl2, 20 mM TRIS, pH 7.4 at a concentration of 3 μg/ml. Into 96-well plates, 50 μl of the diluted integrin were added and allowed to bind to the plate walls overnight at 4° C. Next day, the assay plates were emptied and 100 μl of blocking buffer (CB buffer with 3% BSA) were added to each well for 45 min at 37° C. […] Then, the plates were washed as described and 50 μl of ready to use Turbo-TMB substrate for peroxydase were added to each well. After 30 minutes incubation at room temperature, the color development was stopped with 50 μl sulphuric acid 0.38 M and the plates were read at a wavelength of 450 nm with a Packard plate reader. The values obtained were analyzed by four parameters curve fit with the computer program GraphPad Prism, after normalization by a maximum binding control (Bmax) detected in wells where no competitor was added, and a minimum binding control (NSB) detected in wells where no integrin was coated. […]

Experiment [2] concerns the target T2, human αvβ3 integrin (Homo sapiens, UniProt P05106+P06756).
T2 construct: Human vitronectin receptor (αvβ3) was purified from human placenta; from tissue; host or cells: human placenta
The experiment is described as follows: αvβ3-vitronectin binding assay (solid phase). The protocol:
as §1, with “of αvβ3-vitronectin” for “of αIIbβ3-fibrinogen”, “up on” for “up according to”, “the basis of already published methods (WONG et al., Molecular Pharmacology 50: 529–537, 1996; Brooks et al., Cell 85: 683–693, 1996). The human αvβ3” for “the method described for αvβ3. αIIbβ3”, “mM CaCl2,” for “mM Cacl2,”, “of 1.5” for “of 3”, “fit in” for “fit with”

Each structure is given as a SMILES string.

T2 sequence (P06756 31-889 limits assumed): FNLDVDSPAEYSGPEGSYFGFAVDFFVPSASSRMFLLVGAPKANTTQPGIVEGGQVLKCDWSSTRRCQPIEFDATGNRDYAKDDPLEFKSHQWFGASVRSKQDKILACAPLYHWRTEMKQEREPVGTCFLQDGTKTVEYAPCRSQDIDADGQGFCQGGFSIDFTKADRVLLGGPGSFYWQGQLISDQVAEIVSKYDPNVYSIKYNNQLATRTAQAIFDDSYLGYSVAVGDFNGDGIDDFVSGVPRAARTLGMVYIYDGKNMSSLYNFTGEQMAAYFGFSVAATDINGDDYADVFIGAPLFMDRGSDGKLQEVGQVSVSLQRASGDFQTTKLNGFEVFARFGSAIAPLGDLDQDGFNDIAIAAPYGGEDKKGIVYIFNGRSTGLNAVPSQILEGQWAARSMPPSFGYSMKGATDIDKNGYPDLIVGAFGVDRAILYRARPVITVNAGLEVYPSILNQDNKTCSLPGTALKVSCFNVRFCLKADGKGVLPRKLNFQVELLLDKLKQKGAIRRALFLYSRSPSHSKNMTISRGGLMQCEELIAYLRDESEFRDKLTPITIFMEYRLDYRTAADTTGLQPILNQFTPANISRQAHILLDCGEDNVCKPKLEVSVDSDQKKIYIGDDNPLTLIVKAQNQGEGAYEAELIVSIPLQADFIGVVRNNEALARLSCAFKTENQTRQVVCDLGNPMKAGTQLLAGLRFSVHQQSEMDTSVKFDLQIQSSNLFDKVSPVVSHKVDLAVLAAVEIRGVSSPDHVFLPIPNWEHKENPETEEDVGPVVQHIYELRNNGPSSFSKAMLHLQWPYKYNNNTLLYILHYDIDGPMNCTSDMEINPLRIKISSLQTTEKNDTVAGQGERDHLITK
T2 sequence (P06756 891-1048 partner limits assumed): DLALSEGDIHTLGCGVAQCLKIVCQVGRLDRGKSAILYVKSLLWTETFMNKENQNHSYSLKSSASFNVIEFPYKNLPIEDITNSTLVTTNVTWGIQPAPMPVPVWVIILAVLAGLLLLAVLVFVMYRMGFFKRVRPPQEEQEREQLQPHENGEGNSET
T2 sequence (P05106 27-788): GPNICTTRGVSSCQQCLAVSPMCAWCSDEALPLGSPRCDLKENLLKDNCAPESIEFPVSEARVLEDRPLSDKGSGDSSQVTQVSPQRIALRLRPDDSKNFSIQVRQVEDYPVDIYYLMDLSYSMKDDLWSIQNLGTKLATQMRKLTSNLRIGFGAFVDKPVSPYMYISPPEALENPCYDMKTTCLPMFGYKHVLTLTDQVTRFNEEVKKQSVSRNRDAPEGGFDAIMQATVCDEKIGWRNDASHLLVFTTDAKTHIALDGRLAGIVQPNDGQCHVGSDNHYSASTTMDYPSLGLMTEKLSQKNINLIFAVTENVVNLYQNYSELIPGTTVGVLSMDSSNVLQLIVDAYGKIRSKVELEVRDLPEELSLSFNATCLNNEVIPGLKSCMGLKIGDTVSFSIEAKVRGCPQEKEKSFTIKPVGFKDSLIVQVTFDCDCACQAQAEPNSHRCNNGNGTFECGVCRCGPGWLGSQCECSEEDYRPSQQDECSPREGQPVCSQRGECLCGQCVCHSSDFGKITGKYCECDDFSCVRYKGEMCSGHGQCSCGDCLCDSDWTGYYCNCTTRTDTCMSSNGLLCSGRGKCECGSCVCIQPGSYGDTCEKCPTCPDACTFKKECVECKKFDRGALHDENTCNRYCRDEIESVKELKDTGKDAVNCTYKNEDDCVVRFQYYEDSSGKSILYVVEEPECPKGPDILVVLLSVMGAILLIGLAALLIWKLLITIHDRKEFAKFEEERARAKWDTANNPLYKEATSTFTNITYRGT
T1 sequence (P08514 32-887 limits assumed): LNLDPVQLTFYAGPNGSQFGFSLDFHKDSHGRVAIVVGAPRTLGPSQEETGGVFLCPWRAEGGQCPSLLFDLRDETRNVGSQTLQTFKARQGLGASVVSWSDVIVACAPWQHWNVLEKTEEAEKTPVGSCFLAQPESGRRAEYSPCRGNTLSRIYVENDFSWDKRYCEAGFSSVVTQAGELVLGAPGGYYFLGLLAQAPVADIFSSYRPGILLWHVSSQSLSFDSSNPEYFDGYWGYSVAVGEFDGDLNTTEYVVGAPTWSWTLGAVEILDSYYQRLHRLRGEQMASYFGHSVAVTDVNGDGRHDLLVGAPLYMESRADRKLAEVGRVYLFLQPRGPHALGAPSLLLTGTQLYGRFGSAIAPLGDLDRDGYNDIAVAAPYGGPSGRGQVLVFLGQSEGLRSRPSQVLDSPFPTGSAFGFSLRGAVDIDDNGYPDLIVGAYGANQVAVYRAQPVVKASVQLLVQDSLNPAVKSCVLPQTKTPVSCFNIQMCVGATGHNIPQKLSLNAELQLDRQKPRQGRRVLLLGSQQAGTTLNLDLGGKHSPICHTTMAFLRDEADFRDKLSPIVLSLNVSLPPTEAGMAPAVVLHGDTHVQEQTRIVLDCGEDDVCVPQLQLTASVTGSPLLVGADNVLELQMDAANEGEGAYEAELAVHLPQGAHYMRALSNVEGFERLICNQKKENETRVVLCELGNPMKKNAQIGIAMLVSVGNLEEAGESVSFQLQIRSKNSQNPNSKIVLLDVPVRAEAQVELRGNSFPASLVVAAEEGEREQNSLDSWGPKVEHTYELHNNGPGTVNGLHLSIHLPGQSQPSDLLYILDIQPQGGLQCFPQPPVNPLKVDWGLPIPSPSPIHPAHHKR
T1 sequence (P08514 891-1039 partner limits assumed): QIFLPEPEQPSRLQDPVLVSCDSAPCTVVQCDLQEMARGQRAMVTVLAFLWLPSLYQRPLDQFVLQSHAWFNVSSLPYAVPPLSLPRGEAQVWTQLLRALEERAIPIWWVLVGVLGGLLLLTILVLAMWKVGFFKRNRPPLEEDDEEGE
T1 sequence (P05106 27-788): as the sequence (P05106 27-788) above

For `O=C(O)CC(Nc1ccc2c(c1)OCC(=O)N2CCCNc1ccccn1)c1ccccc1` (stereo not drawn) [3-{4-[3-(N-(2-pyridinyl)amino)propyl]-3-oxo-3,4-dihydro-2H-1,4-benzoxazin-7-yl)amino}-3-phenylpropanoic acid], the IC50 stood at 18 µM in experiment [1] and 0.011 ± 0.004 µM in experiment [2] (inhibition of biotinylated vitronectin (5 nM) binding to coated integrin, read-out: αvβ3 (IC50 μmol)). Moreover, in experiment [2] (selectivity, αIIbβ3 IC50 / αvβ3 IC50), the “ratio between αIIbβ3 and αvβ3 inhibiting activity” value was “about 1,000”.

The values above are taken from patent US7101876B2, “Substituted benzoxazines as integrin antagonists” (Pharmacia Corporation, priority 2001, dated 2006).
